In US20240316022A1 (TYRA BIOSCIENCES, INC., priority 2021, published 2024):

Columns and labels:
Assay in all cases: Kinase binding assay (kinase-tagged T7 phage, qPCR), Kd
FGFR1 = target: T1, FGFR1 (Homo sapiens, UniProt P11362); conditions: read-out: FGFR1 (Kd nM)
T1 construct: made in house; host or cells: E. coli derived from BL21, infected with T7 phage
Procedure: (§1) Kinase-tagged T7 phage strains were prepared in an E. coli host derived from the BL21 strain. E. coli were grown to log-phase and infected with T7 phage and incubated with shaking at 32° C. until lysis. The lysates were centrifuged and filtered to remove cell debris. […] The liganded beads were blocked with excess biotin and washed with blocking buffer SeaBlock (Pierce), 1% BSA, 0.05% Tween 20, 1 mM DTT to remove unbound ligand and to reduce non-specific binding.
(§2) Kds were determined using an 11-point 3-fold compound dilution series with three DMSO control points. […] The compounds were then diluted directly into the assays such that the final concentration of DMSO was 0.9%. All reactions performed in polypropylene 384-well plate. Each was a final volume of 0.02 ml. […] The kinase concentration in the eluates was measured by qPCR.
(§3) Binding constants were calculated with a standard dose-response curve using the Hill equation: […]
(§4) The Hill Slope was set to −1. Curves were fitted using a non-linear least square fit with the Levenberg-Marquardt algorithm.

FGFR2 = target: T2, FGFR2 (Homo sapiens, UniProt P21802); conditions: read-out: FGFR2 (Kd nM)
T2 construct: made in house; host or cells: E. coli derived from BL21, infected with T7 phage
Procedure: as §1, §2, §3, §4

FGFR3 = target: T3, FGFR3 (Homo sapiens, UniProt P22607); conditions: read-out: FGFR3 (Kd nM)
T3 construct: made in house; host or cells: E. coli derived from BL21, infected with T7 phage
Procedure: (§5) Kinase-tagged T7 phage strains were prepared in an E. coli host derived from the BL21 strain. E. coli were grown to log-phase and infected with T7 phage and incubated with shaking at 32° C. until lysis. The lysates were centrifuged and filtered to remove cell debris. Streptavidin-coated magnetic beads were treated with biotinylated small molecule ligands for 30 minutes at room temperature to generate affinity resins for kinase assays. The liganded beads were blocked with excess biotin and washed with blocking buffer SeaBlock (Pierce), 1% BSA, 0.05% Tween 20, 1 mM DTT to remove unbound ligand and to reduce non-specific binding. Binding reactions were assembled by combining kinases, liganded affinity beads, and test compounds in 1× binding buffer (20% SeaBlock, 0.17×PBS, 0.05% Tween 20, 6 mM DTT).
(§6) Test compounds were prepared as 111X stocks in 100% DMSO. Kds were determined using an 11-point 3-fold compound dilution series with three DMSO control points. All compounds for Kd measurements are distributed by acoustic transfer (non-contact dispensing) in 100% DMSO. The compounds were then diluted directly into the assays such that the final concentration of DMSO was 0.9%. All reactions performed in polypropylene 384-well plate. Each was a final volume of 0.02 ml. The assay plates were incubated at room temperature with shaking for 1 hour and the affinity beads were washed with wash buffer (1×PBS, 0.05% Tween 20). The beads were then re-suspended in elution buffer (1×PBS, 0.05% Tween 20, 0.5 μM non-biotinylated affinity ligand) and incubated at room temperature with shaking for 30 minutes. The kinase concentration in the eluates was measured by qPCR.
as §3, §4

FGFR4 = target: T4, FGFR4 (Homo sapiens, UniProt P22455); conditions: read-out: FGFR4 (Kd nM)
T4 construct: made in house; host or cells: E. coli derived from BL21, infected with T7 phage
Procedure: as §5, §6, §3, §4

T3 sequence (P22607 23-806): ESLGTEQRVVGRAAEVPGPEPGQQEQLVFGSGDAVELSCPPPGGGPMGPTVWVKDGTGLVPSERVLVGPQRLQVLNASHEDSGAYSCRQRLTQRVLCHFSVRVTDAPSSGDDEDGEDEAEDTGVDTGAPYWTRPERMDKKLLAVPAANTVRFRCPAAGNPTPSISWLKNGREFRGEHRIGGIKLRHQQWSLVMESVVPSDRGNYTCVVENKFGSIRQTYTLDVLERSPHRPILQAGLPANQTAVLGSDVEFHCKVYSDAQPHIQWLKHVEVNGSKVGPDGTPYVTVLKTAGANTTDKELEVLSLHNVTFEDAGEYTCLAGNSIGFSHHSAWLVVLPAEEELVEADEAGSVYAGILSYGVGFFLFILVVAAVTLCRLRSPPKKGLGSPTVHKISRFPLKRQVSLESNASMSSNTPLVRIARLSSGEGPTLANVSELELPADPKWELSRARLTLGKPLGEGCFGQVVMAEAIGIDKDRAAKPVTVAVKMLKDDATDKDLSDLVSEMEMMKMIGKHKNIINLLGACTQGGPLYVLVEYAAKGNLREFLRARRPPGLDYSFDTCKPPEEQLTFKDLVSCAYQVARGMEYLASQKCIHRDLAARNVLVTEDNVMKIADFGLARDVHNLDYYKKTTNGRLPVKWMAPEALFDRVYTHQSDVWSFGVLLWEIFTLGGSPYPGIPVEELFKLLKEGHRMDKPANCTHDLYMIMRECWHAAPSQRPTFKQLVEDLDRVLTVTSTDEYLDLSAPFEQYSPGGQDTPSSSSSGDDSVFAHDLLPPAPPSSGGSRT
T1 sequence (P11362 22-822): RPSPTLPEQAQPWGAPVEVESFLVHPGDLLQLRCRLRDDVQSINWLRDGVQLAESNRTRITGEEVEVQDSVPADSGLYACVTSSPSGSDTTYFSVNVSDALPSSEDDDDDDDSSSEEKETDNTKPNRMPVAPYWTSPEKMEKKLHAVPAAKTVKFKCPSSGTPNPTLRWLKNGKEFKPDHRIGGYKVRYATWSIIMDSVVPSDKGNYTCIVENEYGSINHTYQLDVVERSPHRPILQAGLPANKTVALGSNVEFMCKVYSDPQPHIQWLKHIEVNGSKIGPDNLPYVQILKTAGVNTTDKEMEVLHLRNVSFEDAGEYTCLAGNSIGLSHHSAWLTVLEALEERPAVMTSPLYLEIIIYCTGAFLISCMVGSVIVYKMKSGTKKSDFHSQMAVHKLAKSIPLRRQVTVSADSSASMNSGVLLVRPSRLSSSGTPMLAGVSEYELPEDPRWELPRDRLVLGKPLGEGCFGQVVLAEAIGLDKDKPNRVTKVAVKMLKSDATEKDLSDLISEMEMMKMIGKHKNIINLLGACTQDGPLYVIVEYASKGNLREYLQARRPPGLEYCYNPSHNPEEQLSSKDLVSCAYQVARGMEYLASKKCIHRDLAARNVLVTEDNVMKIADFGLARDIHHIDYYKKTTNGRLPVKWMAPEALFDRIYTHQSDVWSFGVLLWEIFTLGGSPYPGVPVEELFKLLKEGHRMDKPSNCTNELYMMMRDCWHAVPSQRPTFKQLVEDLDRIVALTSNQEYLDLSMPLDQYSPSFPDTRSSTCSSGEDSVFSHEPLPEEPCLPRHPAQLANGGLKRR
T4 sequence (P22455 22-802): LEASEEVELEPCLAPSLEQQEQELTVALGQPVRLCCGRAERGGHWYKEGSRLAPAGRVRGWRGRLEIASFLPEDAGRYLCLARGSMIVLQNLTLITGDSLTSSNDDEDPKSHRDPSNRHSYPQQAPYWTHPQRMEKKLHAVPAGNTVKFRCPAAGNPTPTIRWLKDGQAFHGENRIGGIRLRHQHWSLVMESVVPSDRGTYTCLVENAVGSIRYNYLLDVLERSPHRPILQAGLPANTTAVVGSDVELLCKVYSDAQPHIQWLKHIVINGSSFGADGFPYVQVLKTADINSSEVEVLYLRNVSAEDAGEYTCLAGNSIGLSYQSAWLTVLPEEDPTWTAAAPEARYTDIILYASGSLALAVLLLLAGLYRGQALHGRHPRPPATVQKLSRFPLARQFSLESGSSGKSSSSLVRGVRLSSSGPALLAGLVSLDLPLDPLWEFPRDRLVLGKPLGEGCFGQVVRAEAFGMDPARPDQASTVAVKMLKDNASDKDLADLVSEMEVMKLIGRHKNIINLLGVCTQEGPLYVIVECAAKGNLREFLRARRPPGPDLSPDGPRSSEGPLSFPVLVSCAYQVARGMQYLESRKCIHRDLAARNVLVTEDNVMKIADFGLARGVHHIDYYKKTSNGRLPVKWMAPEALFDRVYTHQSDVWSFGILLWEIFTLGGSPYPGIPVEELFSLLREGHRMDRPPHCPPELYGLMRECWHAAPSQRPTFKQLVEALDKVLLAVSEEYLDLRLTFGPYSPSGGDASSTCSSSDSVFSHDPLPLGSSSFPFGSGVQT
T2 sequence (P21802 22-821): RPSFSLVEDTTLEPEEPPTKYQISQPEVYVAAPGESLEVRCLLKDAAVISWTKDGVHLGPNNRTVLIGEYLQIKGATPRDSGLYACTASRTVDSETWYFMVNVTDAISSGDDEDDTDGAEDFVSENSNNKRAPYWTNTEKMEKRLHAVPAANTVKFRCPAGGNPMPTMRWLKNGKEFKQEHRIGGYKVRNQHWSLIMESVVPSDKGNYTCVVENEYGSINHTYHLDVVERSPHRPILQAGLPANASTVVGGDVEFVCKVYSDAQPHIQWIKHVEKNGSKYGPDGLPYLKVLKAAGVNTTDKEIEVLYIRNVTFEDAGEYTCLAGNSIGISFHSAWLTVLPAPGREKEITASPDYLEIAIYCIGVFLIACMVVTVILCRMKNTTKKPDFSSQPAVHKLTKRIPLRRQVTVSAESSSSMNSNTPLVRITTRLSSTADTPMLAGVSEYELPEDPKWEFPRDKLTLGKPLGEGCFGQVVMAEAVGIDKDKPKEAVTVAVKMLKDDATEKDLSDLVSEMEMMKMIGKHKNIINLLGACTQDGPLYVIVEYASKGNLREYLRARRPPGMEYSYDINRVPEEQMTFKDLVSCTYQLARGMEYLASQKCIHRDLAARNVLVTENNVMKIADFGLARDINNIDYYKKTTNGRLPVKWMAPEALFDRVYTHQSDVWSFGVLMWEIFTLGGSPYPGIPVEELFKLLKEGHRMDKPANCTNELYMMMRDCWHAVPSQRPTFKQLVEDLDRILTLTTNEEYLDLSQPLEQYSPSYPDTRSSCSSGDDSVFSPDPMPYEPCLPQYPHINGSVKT

C[C@@H](Oc1ccc2[nH]nc(-c3cnc4c(c3)N(Cc3ccccn3)CCO4)c2c1)c1c(Cl)cncc1Cl [Example 48, 7-[5-[(1R)-1-(3,5-dichloro-4-pyridyl)ethoxy]-1H-indazol-3-yl]-1-(2-pyridyl-methyl)-2,3-dihydro-pyrido[2,3-b][1,4]oxazine]
Kd (FGFR1): > 1000 nM | Kd (FGFR2): > 1000 nM | Kd (FGFR3): 0.1 to 100 nM | Kd (FGFR4): 250 to 1000 nM

COc1cc(OC(C)C)cc(-c2n[nH]c3ccc(O[C@H](C)c4c(C)cnnc4C)cc23)c1 [Example 60, 5-[(1R)-1-(3,5-dimethylpyridazin-4-yl)ethoxy]-3-(3-isopropoxy-5-methoxy-phenyl)-1H-indazole]
Kd (FGFR1): > 1000 nM | Kd (FGFR2): > 1000 nM | Kd (FGFR3): > 1000 nM | Kd (FGFR4): > 1000 nM

C[C@@H](Oc1ccc2[nH]nc(-c3ccc4c(c3)CCC3(CCNCC3)O4)c2c1)c1c(Cl)cncc1Cl [Example 104, 6-[5-[(1R)-1-(3,5-dichloro-4-pyridyl)ethoxy]-1H-indazol-3-yl]spiro[chromane-2,4′-piperidine]]
Kd (FGFR1): 0.1 to 100 nM | Kd (FGFR2): 0.1 to 100 nM | Kd (FGFR3): 0.1 to 100 nM | Kd (FGFR4): 0.1 to 100 nM

CCN1CCC2(CC1)CC(O)c1cc(-c3n[nH]c4ccc(O[C@H](C)c5c(C)cnnc5C)cc34)ccc1O2 (stereo partly drawn) [Example 107, 6-(5-((R)-1-(3,5-dimethylpyridazin-4-yl)ethoxy)-1H-indazol-3-yl)-1′-ethylspiro[chroman-2,4′-piperidin]-4-ol]
Kd (FGFR1): 0.1 to 100 nM | Kd (FGFR2): 0.1 to 100 nM | Kd (FGFR3): 0.1 to 100 nM | Kd (FGFR4): 0.1 to 100 nM

C[C@@H](Oc1ccc2[nH]nc(-c3cc(C#N)cc(C4CC4)c3)c2c1)c1c(Cl)cncc1Cl [Example 109, (R)-3-cyclopropyl-5-(5-(1-(3,5-dichloropyridin-4-yl)ethoxy)-1H-indazol-3-yl)benzonitrile]
Kd (FGFR1): > 1000 nM | Kd (FGFR2): > 1000 nM | Kd (FGFR3): 250 to 1000 nM | Kd (FGFR4): 0.1 to 100 nM

Cc1cnnc(C)c1[C@@H](C)Oc1ccc2[nH]nc(-c3cc(C#N)cc(C4CCCC4)c3)c2c1 [Example 86, 3-cyclopentyl-5-[5-[(1R)-1-(3,5-dimethylpyridazin-4-yl)ethoxy]-1H-indazol-3-yl]benzonitrile]
Kd (FGFR1): > 1000 nM | Kd (FGFR2): > 1000 nM | Kd (FGFR3): > 1000 nM | Kd (FGFR4): 250 to 1000 nM

COc1cc2[nH]nc(-c3cnc(O[C@@H]4CCOC4)c(C#N)c3)c2cc1O[C@H](C)c1c(Cl)cncc1Cl [Example 136, 5-(5-((R)-1-(3,5-dichloropyridin-4-yl)ethoxy)-6-methoxy-1H-indazol-3-yl)-2-(((R)-tetrahydrofuran-3-yl)oxy)nicotinonitrile]
Kd (FGFR1): 0.1 to 100 nM | Kd (FGFR2): 0.1 to 100 nM | Kd (FGFR3): 0.1 to 100 nM | Kd (FGFR4): 0.1 to 100 nM

C[C@@H](Oc1ccc2[nH]nc(-c3cnc(N)c(OC(F)(F)F)c3)c2c1)c1c(Cl)cncc1Cl [Example 32, 5-[5-[(1R)-1-(3,5-dichloro-4-pyridyl)ethoxy]-1H-indazol-3-yl]-3-(trifluoro-methoxy)pyridin-2-amine]
Kd (FGFR1): > 1000 nM | Kd (FGFR2): > 1000 nM | Kd (FGFR3): > 1000 nM | Kd (FGFR4): 0.1 to 100 nM

COc1cc2[nH]nc(-c3cc(C#N)cc(C4CC4)c3)c2cc1O[C@H](C)c1c(C)cnnc1C [Example 117, (R)-3-cyclopropyl-5-(5-(1-(3,5-dimethylpyridazin-4-yl)ethoxy)-6-methoxy-1H-indazol-3-yl)benzonitrile]
Kd (FGFR1): 100 to 250 nM | Kd (FGFR2): 250 to 1000 nM | Kd (FGFR3): 100 to 250 nM | Kd (FGFR4): 0.1 to 100 nM

Cc1cc(-c2n[nH]c3ccc(O[C@H](C)c4c(Cl)cnc(C)c4Cl)cc23)cnc1O[C@H]1CCOC1 [Example 154, 5-[(1R)-1-(3,5-dichloro-2-methyl-4-pyridyl)ethoxy]-3-[5-methyl-6-[(3S)-tetrahydrofuran-3-yl]oxy-3-pyridyl]-1H-indazole]
Kd (FGFR1): 250 to 1000 nM | Kd (FGFR2): 250 to 1000 nM | Kd (FGFR3): 0.1 to 100 nM | Kd (FGFR4): 0.1 to 100 nM

Cc1cnnc(C)c1[C@@H](C)Oc1ccc2[nH]nc(-c3cnc(N(C)C)c(C#N)c3)c2c1 [Example 89, (R)-2-(dimethylamino)-5-(5-(1-(3,5-dimethylpyridazin-4-yl)ethoxy)-1H-indazol-3-yl)nicotinonitrile]
Kd (FGFR1): 100 to 250 nM | Kd (FGFR2): 100 to 250 nM | Kd (FGFR3): 0.1 to 100 nM | Kd (FGFR4): 0.1 to 100 nM

Cc1cnnc(C)c1[C@@H](C)Oc1ccc2[nH]nc(-c3cc(C#N)cc(N4CCOCC4)c3)c2c1 [Example 64, 3-[5-[(1R)-1-(3,5-Dimethylpyridazin-4-yl)ethoxy]-1H-indazol-3-yl]-5-morpholino-benzonitrile]
Kd (FGFR1): > 1000 nM | Kd (FGFR2): > 1000 nM | Kd (FGFR3): > 1000 nM | Kd (FGFR4): 100 to 250 nM

COc1cc(-c2n[nH]c3ccc(O[C@H](C)c4c(Cl)cncc4Cl)cc23)cc(C#N)c1OC1CCNCC1 [Example 105, 5-[5-[(1R)-1-(3,5-dichloro-4-pyridyl)ethoxy]-1H-indazol-3-yl]-3-methoxy-2-(4-piperidyloxy)benzonitrile]
Kd (FGFR1): > 1000 nM | Kd (FGFR2): > 1000 nM | Kd (FGFR3): 250 to 1000 nM | Kd (FGFR4): 0.1 to 100 nM

COc1cc(-c2n[nH]c3ccc(O[C@H](C)c4c(C)cnnc4C)cc23)cc(C#N)n1 [Example 100, (R)-4-(5-(1-(3,5-dimethylpyridazin-4-yl)ethoxy)-1H-indazol-3-yl)-6-methoxypicolinonitrile]
Kd (FGFR1): 250 to 1000 nM | Kd (FGFR2): 250 to 1000 nM | Kd (FGFR3): 100 to 250 nM | Kd (FGFR4): 0.1 to 100 nM

Cc1cnnc(C)c1[C@@H](C)Oc1ccc2[nH]nc(-c3cnc(O[C@H]4CCOC4)c(C#N)c3)c2c1 [Example 127, 5-(5-((R)-1-(3,5-dimethylpyridazin-4-yl)ethoxy)-1H-indazol-3-yl)-2-(((S)-tetrahydrofuran-3-yl)oxy)nicotinonitrile]
Kd (FGFR1): 100 to 250 nM | Kd (FGFR2): 0.1 to 100 nM | Kd (FGFR3): 0.1 to 100 nM | Kd (FGFR4): 0.1 to 100 nM

CCOc1cc(OC)cc(-c2n[nH]c3ccc(O[C@@H](C)c4c(C)cnnc4C)cc23)c1 [Example 59, 5-[(1S)-1-(3,5-dimethylpyridazin-4-yl)ethoxy]-3-(3-ethoxy-5-methoxy-phenyl)-1H-indazole]
Kd (FGFR1): > 1000 nM | Kd (FGFR2): > 1000 nM | Kd (FGFR3): > 1000 nM | Kd (FGFR4): > 1000 nM

CCOc1cc(C#N)cc(-c2n[nH]c3ccc(O[C@H](C)c4c(C)cnnc4C)cc23)c1 [Example 56, 3-[5-[(1R)-1-(3,5-dimethylpyridazin-4-yl)ethoxy]-1H-indazol-3-yl]-5-ethoxy-benzonitrile]
Kd (FGFR1): 250 to 1000 nM | Kd (FGFR2): 250 to 1000 nM | Kd (FGFR3): 100 to 250 nM | Kd (FGFR4): 0.1 to 100 nM

C[C@@H](Oc1ccc2[nH]nc(-c3cnc4c(c3)N(C(=O)N3CCOCC3)CCO4)c2c1)c1c(Cl)cncc1Cl [Example 18, [7-[5-[(1R)-1-(3,5-dichloro-4-pyridyl)ethoxy]-1H-indazol-3-yl]-2,3-dihydropyrido[2,3-b][1,4]oxazin-1-yl]-morpholino-methanone]
Kd (FGFR1): 250 to 1000 nM | Kd (FGFR2): 250 to 1000 nM | Kd (FGFR3): 100 to 250 nM | Kd (FGFR4): 0.1 to 100 nM

COc1cc(OC)cc(-c2n[nH]c3ccc(O[C@H](C)c4c(C)cnnc4C)cc23)c1 [Example 54, 3-(3,5-dimethoxyphenyl)-5-[(1R)-1-(3,5-dimethylpyridazin-4-yl)ethoxy]-1H-indazole]
Kd (FGFR1): 250 to 1000 nM | Kd (FGFR2): 250 to 1000 nM | Kd (FGFR3): 0.1 to 100 nM | Kd (FGFR4): 0.1 to 100 nM

COc1ncc(-c2n[nH]c3ccc(O[C@H](C)c4c(C)cnnc4C)cc23)cc1C#N [Example 88, 5-[5-[(1R)-1-(3,5-dimethylpyridazin-4-yl)ethoxy]-1H-indazol-3-yl]-2-methoxy-pyridine-3-carbonitrile]
Kd (FGFR1): 250 to 1000 nM | Kd (FGFR2): 250 to 1000 nM | Kd (FGFR3): 100 to 250 nM | Kd (FGFR4): 0.1 to 100 nM

Cc1cnnc(C)c1[C@H](C)Oc1ccc2[nH]nc(-c3cc(C#N)cc(N4CCOCC4)c3)c2c1 [Example 65, 3-[5-[(1S)-1-(3,5-Dimethylpyridazin-4-yl)ethoxy]-1H-indazol-3-yl]-5-morpholino-benzonitrile]
Kd (FGFR1): > 1000 nM | Kd (FGFR2): > 1000 nM | Kd (FGFR3): > 1000 nM | Kd (FGFR4): > 1000 nM

COc1ncc(-c2n[nH]c3ccc(O[C@H](C)c4c(Cl)cncc4Cl)cc23)cc1NC(=O)N1CCOCC1 [Example 5, (R)—N-(5-(5-(1-(3,5-Dichloropyridin-4-yl)ethoxy)-1H-indazol-3-yl)-2-methoxypyridin-3-yl)morpholine-4-carboxamide]
Kd (FGFR1): > 1000 nM | Kd (FGFR2): 100 to 250 nM | Kd (FGFR3): 250 to 1000 nM | Kd (FGFR4): 0.1 to 100 nM
